Structures can show the parent of a compound that is named as a salt.
Tests used:
[1] = Particle size analysis by laser light diffraction; type: physicochemical; conditions: Fraunhofer method
Method: Laser diffraction measurements were performed with a LS 13 320 laser diffraction particle size analyzer equipped with a Tornado DPS module (Beckman Coulter Inc, Brea, CA, USA). Each API, excipient and the blend of batch P25/29-M were measured five times. Particle sizes were calculated using the Fraunhofer method.

[2] = type: physicochemical
Method: DSC analyzes were carried out with a DSC 1 device (Mettler-Toledo, LLC, Columbus, OH, USA) operated with STARe Software V16.10. Each single component of the formulation as well as the powder blend and the extruded filament (both P25/29-M) were analyzed. Three different methods were utilized. Nitrogen was used as a purging gas at a flow rate of 50 mL/min. Every sample was heated to 250° C. (10° C./min) and kept at this temperature for 5 min. CD, LD, mannitol and the powder blend were also heated (10° C./min) to and kept at 185° C. (10 min), then cooled to 25° C. (20° C./min) and kept at this temperature for 5 min and reheated to 185° C. (10° C./min) and kept at this temperature for 10 min. Ultimately, CD and the powder blend were also heated to 182° C. (10° C./min) and kept at this temperature for 30 min.

[3] = Stability analysis: storage in constant climate chambers, API content by HPLC; type: physicochemical; conditions: in P25/29-M small Donuts
Method: Small Donuts of P25/29-M were packed in FDS/Proud packaging material Unit Dose Bags (UDB) using a FDS II Proud 336 device (Baxter International Inc., Deerfield, Il, USA) or brown glass stored in constant climate chambers (KBF P 240 and KBF S 240; Binder GmbH; Tuttlingen, Germany). […] Samples packed in UDB were stored for 7 days or 28 days in each of the previously mentioned conditions. Samples in brown glass were stored for 28 days in the 25° C./60% RH condition. After storage, the API contents of the samples were analyzed via HPLC as described in 2.2.6. Each sampling time comprised three samples.

[4] = 3D printing of tablets by direct powder extrusion (DPE): printability and API tolerance; conditions: printing temperature 180° C.
Excerpt: The previously blended powders were 3D printed using a M3DIMAKER™ equipped with a DPE printhead coupled with a 0.4 mm nozzle (FabRx Ltd., London, United Kingdom). Computer-aided design (CAD) models of tablets were designed using Autodesk Tinkercad (Autodesk Inc., Mill Valley, CA, U.S.A.) and processed with Repetier-Host software (Hot-World GmbH & Co. KG, Willich, Germany). To enhance powder flow, the M3DIMAKER™ was modified with a stirring element 4 (see FIG. 1).
Tablets were printed using the following parameters: printing temperature: 180° C.; first layer height: 0.6 mm, layer height: 0.15-0.30 mm (adaptive slicing), infill: 60-100%, travel speed 70 mm/s, first layer speed 5 mm/s, perimeter speed 7.5-15 mm/s, infill speed: 15-20 mm/s with zero (Oblongs) or one (Cylinders and Donuts) top layer, two bottom layers and two shells.

[5] = Thermogravimetric analysis (TGA), thermal stability; type: physicochemical; conditions: for temperature at which mass loss / decomposition starts (thermogram): 40 to 300° C.
Method: TGA analyzes were carried out with a Discovery TGA (TA Instruments, Waters, LLC, U.S.A.) and data was collected and analyzed with TA Instruments Trios software and percent mass loss or onset temperature were calculated. Two different methods were utilized. Both APIs were subjected to a temperature ramp of 10° C./min starting at 40° C. and concluding at 300° C. in open aluminum pans. CD was additionally subjected to an isothermal stress test at 180° C. for 30 min.

[6] = Extrusion experiments with BZ in place of CD, extrudate analyzed via HPLC; type: physicochemical; conditions: extrusion 125-155° C.
Method: For LD and BZ analytics a separate HPLC method was developed for the same equipment. The mobile phase was a 95:5 mixture of aforementioned hydrogen phosphate buffer (pH 2.5) and methanol. LD was detected at 280 nm and BZ at 268 nm. Retention times were 3.41 min (BZ) and 4.41 min (LD). The calibration for LD was the same as in the above-named method and BZ was calibrated in the same range as CD.
Following the dissolution experiments and the subsequently adapted thermoanalyses to further investigate the thermolability of CD, extrusion experiments with BZ were conducted. For these experiments, the CD (P25/29-M) was substituted with BZ. The formulation was extruded between 125-155° C. and the extrudate analyzed via HPLC.

[7] = Dissolution of printed tablets, Ph. Eur. 2.9.3, 0.1 M HCl, paddle 100 rpm, HPLC; type: physicochemical
Method: Dissolution experiments were carried out according to Ph. Eur. 10.6; 2.9.3 (EDQM, Ph. Eur.), with a Premiere 5100 Dissolution System (Distek Inc., North Brunswick Township, NJ, USA). […] The paddle speed was set to 100 rpm. Samples were taken after 5, 10, 15, 20, 30, 45, 60 and 90 min. A sinker was used for analyzes. For all small tablets and the large Oblongs a Distek “Japanese Basket” was used, whereas a custom 3D printed polylactic acid (PLA) sinker (not shown) was used for the large Cylinders and the large Donuts. If applicable, the dissolution profiles were compared using the f2 comparison (Moore and Flanner 1996).
The API content of the powder blend and the dissolution samples were analyzed and evaluated with a Nexera XR HPLC system and LabSolutions software version 6.83 (both Shimadzu Corp., Nakagyo-ku, Kyoto, Japan). The Nexera XR HPLC system consists of two degassing units (DGU-20A5R) and two HPLC-pumps (LC-20ADXR) as well as an autosampler (SIL-20ACXR) a column oven (FCV-34AH) and a communication bus module (CBM-20A). Samples were dissolved and diluted in 0.1 M HCl. Turbid samples were filtered through a 0.22 μm PTFE Filter. Prior to each analytical sequence, the column was equilibrated for 30 min and the autosampler purged for 5 min. HPLC samples were measured in duplicate with an injection volume of 20 μL. […]

Structure (SMILES): N[C@@H](Cc1ccc(O)c(O)c1)C(=O)O [LD, Levodopa]
- particle size d50 [1]: 51.8 μm
- temperature up to which no degradation was found (DSC and TGA) [2]: > 250 °C
- storage time tolerated ([3]; both conditions (25/60, 40/75) and packagings): at least 28 days
- tolerance of the printing process (in words) [4]: able to tolerate the printing temperature
- temperature at which mass loss / decomposition starts (thermogram) ([5]; ramp 10° C./min): about 275 °C

Structure (SMILES): OC[C@@H](O)[C@@H](O)[C@H](O)[C@H](O)CO [mannitol, Mannitol]
- particle size d50 [1]: 345 μm

Structure (SMILES): NC(CO)C(=O)NNCc1ccc(O)c(O)c1O (stereo not shown) [BZ, Benserazide-HCl]
- substance lost during extrusion [6]: More than 70%

Structure (SMILES): C[C@@](Cc1ccc(O)c(O)c1)(NN)C(=O)O [CD, Carbidopa]
- particle size d50 [1]: 15.3 μm
- time of exposition until decomposition begins (isothermal DSC) ([2]; 182° C. isothermal): 7 to 8 min
- substance lost during extrusion ([7]; CD, much higher extrusion temperatures (printing 180° C.)): 30-40%
- CD recovered from the completely dissolved tablets ([7]; after the printing process): 60-70%
- storage stability (in words) ([3]; brown glass, and 25/60, 7 in UDB): moderate stability
- tolerance of the printing process (in words) [4]: degraded partially during the printing process
- loss in mass over the first 10 min (isothermal TGA) ([5]; 180° C. isothermal): more than 20%
- mass loss in the thermogram (release of hydrate water) ([5]; between ca. 90-140° C., ramp 10° C./min): about 8%
- temperature at which mass loss / decomposition starts (thermogram) ([5]; ramp 10° C./min): about 195 °C
